Reference: patent US5608095A, “Alkyl-4-silyl-phenols and esters thereof as antiatherosclerotic agents” (Hoechst Marion Roussel, Inc., priority 1996, dated 1997)
Where two headings read alike, the source gives them in different places.

Tests used:
[1] = test system: ICAM-1; assay: Cell surface ELISA for ICAM-1 in human umbilical vein endothelial cells (HUVEC), TNF-alpha induced; type: cell-based; details: 50 μM, average of two runs, numbers in parentheses represent negative values
Description: Cell Surface ELISA for VCAM-1/ICAM-1
Proliferating human umbilical vein endothelial cells (HUVEC) or human aortic smooth muscle cells (HASMC) from Clonetics (San Diego, Calif.) were plated onto 96-well plates in 100 μL medium per well at 20,000 cells per cm^2. The cultures were maintained in growth medium (EGM or SMGM2, Clonetics, San Diego, Calif.) for two days prior to addition of cytokines or drugs. Cytokines plus or minus compounds were added for 20 to 24 hours prior to analysis for adhesion molecule levels. Tumor necrosis factor (Genzyme, Cambridge, Mass.) was added to cultures at 500-1000 units/mL. Interleukin-4 (GIBCO-BRL, Gaithersburg, Md.) was added to cultures at 100-200 pg/mL. (Additions were made by transferring 100 [μL of cytokines plus compounds serially diluted on a separate 96-well plate into the plates containing cells. The medium on the cultures was not exchanged prior to addition of effectors). The culture medium was removed, and the monolayers were washed twice with Hanks buffered saline solution (HBSS) at room temperature. The primary antibody (anti-human VCAM-1 from Upstate Biotechnology, Inc., Lake Placid, N.Y. or anti-human ICAM-1 from Immunotech, Inc., Westbrook, Me.) was added to each well (1 μg/mL in HBSS plus 5% newborn calf serum, GIBCO-BRL, Gaithersburg, Md.) and incubated at 37° C. for 1 hr. The wells were washed twice with HBSS, then 100 μL of a 1/1000 dilution of goat anti-mouse IgG conjugated to horse radish peroxidase (BioRad, Hercules, Calif.) in HBSS plus 5% newborn calf serum was added to each well and incubated for 1 hr at 37° C. The wells were washed three times with HBSS, then 100 μL of TMB substrate (BioRad, Hercules, Calif.) was added to each well. The reaction was stopped after blue color developed by addition of 50 μL of 1N H2 SO4. Absorbance is measured at 450 nm with a plate reader. IC50 values were determined from curves of absorbance values obtained from serial dilutions of compounds (dissolved in dimethyl sulfoxide).
The IC50 value is defined as the drug concentration that inhibits the cytokine-induced adhesion molecule expression by 50%. Maximal values for adhesion molecule expression in cytokine-induced cultures was […] the basal level of adhesion molecule expression (minus cytokines) in the cultures to determine the level of induction. […] Each drug concentration was tested in quadruplicate wells. Single point tests of compounds at 50 μM were assayed as described for IC50 determinations, except that the data represent the level of inhibition without correction for basal expression. (Basal adhesion molecule expression was 10-20% of the total induced expression). Table 1 summarizes the ability of various compounds of this invention to inhibit VCAM-1 using human aortic smooth muscle cells (HASMC). In these experiments, the cells were coincubated with interleukin-4 and the compounds listed about 20 hr before assaying cell surface VCAM-1 levels. Each column represents a separate experiment.
In these experiments, the cells were coincubated with tumor necrosis factor-alpha along with the indicated compounds about 20 to 24 hr before assaying cell surface adhesion molecule expression.

[2] = HPLC quantitation of compound and metabolite concentration in rabbit serum and liver; type: in vivo, female New Zealand White rabbits; details: for concentration at 168 h: po
In short: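 Female New Zealand White rabbits fed 0.2% cholesterol chow with 0.4% compound (some at 0.26% or 0.6%) for 7 days (14 days at 0.6%), fasted overnight before sampling. Serum and liver extracts run by reverse-phase C18 HPLC, absorbance 240/254/420 nm, for parent, bisphenol and diphenoquinone; recovery-corrected, detection limit ~0.5 μg/mL.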

[3] = rabbit liver, diet 0.4%, 7 days
[4] = rabbit serum, diet 0.4%, 7 days
[5] = rabbit liver, diet 0.4%, 7 days, read-out: Liver Parent = parent compound concentration
[6] = rabbit serum, diet 0.4%, 7 days, read-out: Serum Parent = parent compound concentration

CC(C)(C)c1cc(OC[Si](C)(C)c2ccccc2)cc(C(C)(C)C)c1OC(=O)CCC(=O)O [MDL 103,076, 2,6-Di-t-butyl-4-[(dimethylphenylsilyl)methyloxy]phenol succinic acid ester]
ICAM-1 % inh. [1]: 76%

CC(C)(C)c1cc(SC[Si](C)(C)c2ccccc2)cc(C(C)(C)C)c1OC(=O)CCC(=O)O [MDL 103,141, 2,6-Di-t-butyl-4-[(dimethylphenylsilyl)methylthio]phenol sucinic acid ester]
ICAM-1 % inh. [1]: 79.5%

CC(C)(C)c1cc(OC[Si](C)(C)c2ccccc2)ccc1O [MDL 103,491, 2-t-Butyl-4-[(dimethylphenylsilyl)methyloxy]phenol]
Liver Parent = parent compound concentration [2, 3]: 0 µg/g
Liver Parent = parent compound concentration ([2]; rabbit liver, diet 0.6%, 14 days): 0 µg/g
Serum Parent = parent compound concentration [2, 4]: 0 µg/mL
Serum Parent = parent compound concentration ([2]; rabbit serum, diet 0.6%, 14 days): 0 µg/mL
ICAM-1 % inh. [1]: 80%

CN(C)c1ccc([Si](C)(C)COc2cc(C(C)(C)C)c(O)c(C(C)(C)C)c2)cc1 [MDL 104,556, 2,6-Di-t-butyl-4-[(4-N,N-dimethylaminophenyldimethylsilyl)methyloxy]phenol]
concentration at 168 h [2, 5]: 7900 ng/g
concentration at 168 h [2, 6]: 4900 ng/mL
ICAM-1 % inh. [1]: 1.5%

CC(C)(C)c1cc(OC[Si](C)(c2ccccc2)c2ccccc2)cc(C(C)(C)C)c1O [MDL 104,599, 2,6-Di-t-butyl-4-[(diphenylmethylsilyl)methloxy]phenol]
concentration at 168 h [2, 5]: 47200 ng/g
concentration at 168 h [2, 6]: 14800 ng/mL

CC(C)(C)c1cc(OC[Si](C)(C)c2ccccc2)c(C(C)(C)C)cc1O [MDL 104,962, 2,5-Di-t-butyl-4-[(dimethylphenylsilyl)methyloxy]phenol]
concentration at 168 h [2, 5]: 3600 ng/g
concentration at 168 h [2, 6]: 3800 ng/mL

Cc1cc(OC[Si](C)(C)c2ccccc2)c(C)c(C)c1O [MDL 105,314, 2,3,6-Trimethyl-4-[(dimethylphenylsdilyl)methloxy]phenol]
ICAM-1 % inh. [1]: 75.5%

CC(=O)Oc1ccc(OC[Si](C)(C)c2ccccc2)cc1C(C)(C)C [MDL 105,443, 2-t-Butyl-4-[(dimethylphenylsilyl)methyloxy]phenol acetic acid ester]
Liver Parent = parent compound concentration [2, 3]: 0 µg/g
Serum Parent = parent compound concentration [2, 4]: 0 µg/mL
ICAM-1 % inh. [1]: 73.0%

CC(C)(C)c1cc(OC[Si](C)(C)c2ccc(C(F)(F)F)cc2)cc(C(C)(C)C)c1O [MDL 105,975, 2,6-Di-t-butyl-4-[(dimethyl-4-trifluoromethylphenylsilyl)methyloxy]phenol]
concentration at 168 h [2, 5]: 54600 ng/g
concentration at 168 h [2, 6]: 13800 ng/mL
ICAM-1 % inh. [1]: 2.5%

COc1ccc([Si](C)(C)COc2ccc(O)c(C(C)(C)C)c2)cc1 [MDL 106,834, 2-t-Butyl-4-[(dimethyl-p-methoxylphenylsilyl)methyloxy]phenol]
concentration at 168 h [2, 5]: 9100 ng/g
concentration at 168 h [2, 6]: 2900 ng/mL
